One assay addresses human TPH1 (Homo sapiens (Human), UniProt P17752). In words: Biochemical in vitro assay using fluorescence readout (TPH1 inhibition). The following applies: full length human TPH1, 40 μM L-tryptophan, 15° C., 60 minutes, fluorescence at 540 nm; mean if determined several times.
Sequence of human TPH1 (P17752 whole entry): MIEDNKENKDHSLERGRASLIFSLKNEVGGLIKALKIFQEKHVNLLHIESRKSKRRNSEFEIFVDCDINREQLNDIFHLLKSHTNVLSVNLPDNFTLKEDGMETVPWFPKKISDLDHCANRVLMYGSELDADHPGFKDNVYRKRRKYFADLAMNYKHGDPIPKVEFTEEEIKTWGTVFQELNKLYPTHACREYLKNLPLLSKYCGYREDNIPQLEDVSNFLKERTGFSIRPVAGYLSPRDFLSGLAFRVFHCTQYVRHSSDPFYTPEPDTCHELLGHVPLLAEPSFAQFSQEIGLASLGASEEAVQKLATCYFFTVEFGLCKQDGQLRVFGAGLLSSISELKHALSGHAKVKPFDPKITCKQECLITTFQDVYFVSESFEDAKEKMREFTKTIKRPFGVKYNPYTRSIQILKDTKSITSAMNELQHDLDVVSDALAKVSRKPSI
Molecule `CCNc1nn(C)c(C2c3c(nc4sc(C)nn34)CCN2C(=O)COc2ccc(N3CCOCC3)nc2Cl)c1C` (stereo not shown) [Example 1.51.1, 2-((2-Chloro-6-morpholinopyridin-3-yl)oxy)-1-(5-(3-(ethylamino)-1,4-dimethyl-1H-pyrazol-5-yl)-2-methyl-7,8-dihydro-[1,3,4]thiadiazolo[2′,3′:2,3]imidazo[4,5-c]pyridin-6(5H)-yl)ethanone] displayed an IC50 of 58 nM.

`Cc1nn2c3c(nc2s1)CCN(C(=O)COc1ccc(C2CC2)nc1Cl)C3c1ccc(Cl)cc1F` (stereo not shown) [Example 1.4.28, 1-(5-(4-Chloro-2-fluorophenyl)-2-methyl-7,8-dihydro-[1,3,4]thiadiazolo[2′,3′:2,3]imidazo[4,5-c]pyridin-6(5H)-yl)-2-((2-chloro-6-cyclopropylpyridin-3-yl)oxy)-ethanone] had an IC50 of 6 nM.

Staying with this assay, now noted: human TPH1, fluorescence readout.
In turn, `Cc1nn2c3c(nc2s1)CCN(C(=O)COc1ccc(N2CCOCC2)nc1Cl)C3c1nc(C(=O)N(C)C)cs1` (stereo not shown) [Example 1.18.1, 2-(6-(2-((2-chloro-6-morpholinopyridin-3-yl)oxy)acetyl)-2-methyl-5,6,7,8-tetrahydro-[1,3,4]thiadiazolo[2′,3′:2,3]imidazo[4,5-c]pyridin-5-yl)-N,N-dimethylthiazole-4-carboxamide] gave an IC50 of 14 nM.

Molecule `COC(=O)c1cnc(C2c3c(nc4sc(C)nn34)CCN2C(=O)COc2ccc(N3CC(F)(F)C3)nc2Cl)s1` (stereo not shown) [Example 1.28.4, Methyl 2-(6-(2-((2-chloro-6-(3,3-difluoroazetidin-1-yl)pyridin-3-yl)oxy)acetyl)-2-methyl-5,6,7,8-tetrahydro-[1,3,4]thiadiazolo[2′,3′:2,3]imidazo[4,5-c]pyridin-5-yl)thiazole-5-carboxylate] displayed an IC50 of 17 nM.

Molecule `Cc1nn2c3c(nc2s1)CCN(C(=O)COc1ccc(Cl)cc1C)C3c1cc(CN(C)C)cs1` (stereo not shown) [Example 1.8.3, 2-(4-chloro-2-methylphenoxy)-1-(5-(4-((dimethylamino)methyl)thiophen-2-yl)-2-methyl-7,8-dihydro-[1,3,4]thiadiazolo [2′,3′:2,3]imidazo[4,5-c]pyridin-6(5H)-yl)ethanone] yielded an IC50 of 95 nM. This IC50 lies about 5.6-fold higher than the previous one.

As to `Cc1nn2c3c(nc2s1)CCN(C(=O)COc1c(F)cc(N2CCOCC2)nc1Cl)C3c1ncc(C2CC2)cc1F` (stereo not shown) [Example 1.14.12, 2-((2-chloro-4-fluoro-6-morpholinopyridin-3-yl)oxy)-1-(5-(5-cyclopropyl-3-fluoropyridin-2-yl)-2-methyl-7,8-dihydro-[1,3,4]thiadiazolo[2′,3′:2,3]imidazo[4,5-c]pyridin-6(5H)-yl)ethanone], it took 41 nM to reach half-maximal inhibition (IC50). This IC50 is about 2.3-fold lower than that of the molecule before.

`CS(=O)(=O)Nc1ccc(OCC(=O)N2CCc3nc4sccn4c3C2c2sccc2F)c(Cl)n1` (stereo not shown) [Example 6.8.4, N-(6-chloro-5-(2-(5-(3-fluorothiophen-2-yl)-7,8-dihydrothiazolo[2′,3′:2,3]imidazo[4,5-c]pyridin-6(5H)-yl)-2-oxoethoxy)pyridin-2-yl)methanesulfonamide] showed an IC50 of 7 nM.

The molecule `COC1(c2csc(C3c4c(nc5sc(C)nn45)CCN3C(=O)COc3ccc(N4CCOCC4)nc3Cl)c2)COC1` (stereo not shown) [Example 1.50.1, 2-((2-chloro-6-morpholinopyridin-3-yl)oxy)-1-(5-(4-(3-methoxyoxetan-3-yl)thiophen-2-yl)-2-methyl-7,8-dihydro-[1,3,4]thiadiazolo[2′,3′:2,3]imidazo[4,5-c]pyridin-6(5H)-yl)ethanone] had an IC50 of 6 nM.

In turn, `CCc1ncccc1OCC(=O)N1CCc2nc3sc(C)nn3c2C1c1ccc(Cl)cc1F` (stereo not shown) [Example 1.4.5, 1-(5-(4-chloro-2-fluorophenyl)-2-methyl-7,8-dihydro-[1,3,4]thiadiazolo[2′,3′:2,3]imidazo[4,5-c]pyridin-6(5H)-yl)-2-((2-ethylpyridin-3-yl)oxy)ethanone] yielded an IC50 of 13 nM.

The molecule `Cc1nn2c3c(nc2s1)CCN(C(=O)COc1ccc(C(=O)N(C)C)nc1Cl)C3c1ccc(Cl)cc1F` (stereo not shown) [Example 1.4.42, 6-chloro-5-(2-(5-(4-chloro-2-fluorophenyl)-2-methyl-7,8-dihydro-[1,3,4]thiadiazolo[2′,3′:2,3]imidazo[4,5-c]pyridin-6(5H)-yl)-2-oxoethoxy)-N,N-dimethylpicolinamide] had an IC50 of 18 nM. This IC50 and that of the molecule before are within 1.5-fold of each other.

For `CCc1ncccc1OCC(=O)N1CCc2nc3sc(C)nn3c2C1c1nc(-c2ccccc2)no1` (stereo not shown) [Example 1.11.2, 2-((2-ethylpyridin-3-yl)oxy)-1-(2-methyl-5-(3-phenyl-1,2,4-oxadiazol-5-yl)-7,8-dihydro-[1,3,4]thiadiazolo[2′,3′:2,3]imidazo[4,5-c]pyridin-6(5H)-yl)ethanone], the IC50 is 141 nM.

The molecule `Cc1nn2c3c(nc2s1)CCN(C(=O)COc1ccc(C(=O)N(C)C)nc1Cl)C3c1cccc(F)c1F` (stereo not shown) [Example 1.62.1, 6-chloro-5-(2-(5-(2,3-difluorophenyl)-2-methyl-7,8-dihydro-[1,3,4]thiadiazolo[2′,3′:2,3]imidazo[4,5-c]pyridin-6(5H)-yl)-2-oxoethoxy)-N,N-dimethylpicolinamide] had an IC50 of 65 nM.

Molecule `CCc1nc(NS(C)(=O)=O)ccc1OCC(=O)N1CCc2nc3sc(CF)nn3c2C1c1ncc(C)cc1F` (stereo not shown) [Example 7.2.2, N-(6-ethyl-5-(2-(5-(3-fluoro-5-methylpyridin-2-yl)-2-(fluoromethyl)-7,8-dihydro-[1,3,4]thiadiazolo[2′,3′:2,3]imidazo[4,5-c]pyridin-6(5H)-yl)-2-oxoethoxy)pyridin-2-yl)methanesulfonamide] came in with an IC50 of 20 nM.

On to `Cc1nn2c3c(nc2s1)CCN(C(=O)COc1ccc(N2CCOCC2)nc1Cl)C3c1nc(CN(C)C)cs1` (stereo not shown) [Example 1.17.1, 2-((2-chloro-6-morpholinopyridin-3-yl)oxy)-1-(5-(4-((dimethylamino)methyl)thiazol-2-yl)-2-methyl-7,8-dihydro-[1,3,4]thiadiazolo[2′,3′:2,3]imidazo[4,5-c]pyridin-6(5H)-yl)ethanone], for which inhibition was half-maximal at 62 nM (IC50).

Regarding `O=C(COc1ccc(CN2CCOCC2)nc1Cl)N1CCc2nc3sccn3c2C1c1cnn(-c2ccccc2)c1` (stereo not shown) [Example 6.13.6, 2-((2-chloro-6-(morpholinomethyl)pyridin-3-yl)oxy)-1-(5-(1-phenyl-1H-pyrazol-4-yl)-7,8-dihydrothiazolo-[2′,3′:2,3]imidazo[4,5-c]pyridin-6(5H)-yl)ethanone], the IC50 worked out at 28 nM.

For the molecule `Cc1cnc(C2c3c(nc4sc(C)nn34)CCN2C(=O)COc2ccc(C(=O)N(C)C)nc2Cl)c(F)c1` (stereo not shown) [Example 1.31.7, 6-chloro-5-(2-(5-(3-fluoro-5-methylpyridin-2-yl)-2-methyl-7,8-dihydro-[1,3,4]thiadiazolo[2′,3′:2,3]imidazo[4,5-c]pyridin-6(5H)-yl)-2-oxoethoxy)-N,N-dimethylpicolinamide], the IC50 worked out at 6 nM.

In turn, `Cc1nn2c3c(nc2s1)CCN(C(=O)COc1ccc(NS(C)(=O)=O)nc1Cl)C3c1sccc1F` (stereo not shown) [Example 1.23.4, N-(6-chloro-5-(2-(5-(3-fluorothiophen-2-yl)-2-methyl-7,8-dihydro-[1,3,4]thiadiazolo[2′,3′:2,3]imidazo[4,5-c]pyridin-6(5H)-yl)-2-oxoethoxy)pyridin-2-yl)methanesulfonamide] had an IC50 of 7 nM.

Molecule “5-(2-(5-(4-(aminomethyl)-2-fluorophenyl)-2-methyl-7,8-dihydro-[1,3,4]thiadiazolo[2′,3′:2,3]imidazo[4,5-c]pyridin-6(5H)-yl)-2-oxoethoxy)-6-chloro-N-cyclopropylpicolinamide [Example 1.78.2]” returned an IC50 of 18 nM.

For `CC(=O)Nc1ccc(C2c3c(nc4sc(C)nn34)CCN2C(=O)COc2ccc(N3CCOCC3)nc2Cl)s1` (stereo not shown) [Example 1.13.1, N-(5-(6-(2-((2-chloro-6-morpholinopyridin-3-yl)oxy)acetyl)-2-methyl-5,6,7,8-tetrahydro-[1,3,4]thiadiazolo [2′,3′:2,3]imidazo[4,5-c]pyridin-5-yl)thiophen-2-yl)acetamide], the concentration for half-maximal inhibition (IC50) came to 54 nM.

In the case of `Cc1cnc(C2c3c(nc4sc(C)nn34)CCN2C(=O)COc2ccc(C#N)cc2Cl)c(F)c1` (stereo not shown) [Example 1.31.4, 3-chloro-4-(2-(5-(3-fluoro-5-methylpyridin-2-yl)-2-methyl-7,8-dihydro-[1,3,4]thiadiazolo[2′,3′:2,3]imidazo[4,5-c]pyridin-6(5H)-yl)-2-oxoethoxy)benzonitrile], the IC50 came out at 49 nM.

Consider “2-((2-chloro-6-morpholinopyridin-3-yl)oxy)-1-(5-(4-(2-hydroxypropan-2-yl)thiophen-2-yl)-2-methyl-7,8-dihydro-[1,3,4]thiadiazolo[2′,3′:2,3]imidazo[4,5-c]pyridin-6(5H)-yl)ethanone [Example 1.19.1]”, for which half-maximal inhibition (IC50) was put at 6 nM.

Consider `CS(=O)(=O)Nc1ccc(OCC(=O)N2CCc3nc4sccn4c3C2c2sccc2F)c(Cl)c1` (stereo not shown) [Example 6.8.5, N-(3-chloro-4-(2-(5-(3-fluorothiophen-2-yl)-7,8-dihydro-thiazolo[2′,3′:2,3]imidazo[4,5-c]pyridin-6(5H)-yl)-2-oxoethoxy)phenyl)methanesulfonamide], for which the IC50 stood at 9 nM.

Take `Cc1cnc([C@H]2c3c(nc4sc(C)nn34)CCN2C(=O)COc2ccc(N(C)S(C)(=O)=O)nc2Cl)c(F)c1` [Example 1.31.15, (R)-N-(6-chloro-5-(2-(5-(3-fluoro-5-methylpyridin-2-yl)-2-methyl-7,8-dihydro-[1,3,4]thiadiazolo[2′,3′:2,3]-imidazo[4,5-c]pyridin-6(5H)-yl)-2-oxoethoxy)pyridin-2-yl)-N-methylmethanesulfonamide]: half-maximal inhibition (IC50) required 9 nM.

The molecule `Cc1nn2c3c(nc2s1)CCN(C(=O)COc1ccc(NS(C)(=O)=O)nc1Cl)C3c1ccc(OC(F)(F)F)cc1F` (stereo not shown) [Example 1.77.1, N-(6-chloro-5-(2-(5-(2-fluoro-4-(trifluoromethoxy)phenyl)-2-methyl-7,8-dihydro-[1,3,4]thiadiazolo[2′,3′:2,3]imidazo[4,5-c]pyridin-6(5H)-yl)-2-oxoethoxy)pyridin-2-yl)methanesulfonamide] registered a concentration for half-maximal inhibition (IC50) of 13 nM.

As to `Cc1nn2c3c(nc2s1)CCN(C(=O)COc1ccc(C(=O)N(C)C)nc1Cl)C3c1cnc(-c2ccccc2)s1` (stereo not shown) [Example 1.60.1, 6-chloro-N,N-dimethyl-5-(2-(2-methyl-5-(2-phenylthiazol-5-yl)-7,8-dihydro-[1,3,4]thiadiazolo[2′,3′:2,3]imidazo[4,5-c]pyridin-6(5H)-yl)-2-oxoethoxy)picolinamide], the IC50 amounted to 14 nM.

Source of the values: patent US9765092B2, “Tricyclic piperidine compounds” (ACTELION PHARMACEUTICALS LTD, priority 2013, dated 2017).
